The numbers were not newly measured in patent publication US20070161566A1, “Method of treating multiple sclerosis” (Teva Pharmaceutical Industries, Ltd., priority 2006, published 2007), which cites them from elsewhere.

For data set [1], the system named is MS patients. Conditions: 20 mg/day subcutaneous dose.
Data set [2] deals with chronic progressive MS patients. Conditions: 15 mg twice per day (30 mg per day); up to 24 months.

On to “L-glutamic acid polymer with L-alanine, L-lysine, L-tyrosine, acetate (salt) [GA]”, for which the “total number of enhancing lesions as measured by MRI” value in data set [1] is recorded as “reduce the total number of enhancing lesions”. In data set [2], the “arrest or reversal of disease progress vs placebo” value was “did not produce statistically significant difference”.
